Measured values reported in EP4659739A9, “TOPICAL FORMULATION COMPRISING NON-COVALENT KERATIN-ACTIVE AGENT CONJUGATES FOR THERAPEUTIC USE” (Rigi Therapeutics AG, priority 2024, dated 2025).

Experiments:
[1] = tested on: Chorion-Allantois-Membran; experiment: HET-CAM, preclinical tolerability; set-up: species or system Gallus gallus domesticus
Experimental: Als Screening hinsichtlich der Hautverträglichkeit der Keratinpartikel wurde dieses in eine halbfeste Formulierung eingearbeitet und an der Chorion-Allantois-Membran von acht- bis neuntägigen Gallus gallus domesticus Embryonen (Rasse: New Hampshire) getestet.
Die Hautverträglichkeit der Keratinpartikel wurde an der Chorion-Allantois-Membran von acht- bis neuntägigen Hühnerembryonen getestet. Befruchtete Hühnereier wurden hierfür acht bis neun Tage lang bei 37°C und 55 % Luftfeuchtigkeit bebrütet. Alle 12 Stunden wurden die Eier gewendet, ausgenommen die letzten 24 Stunden vor Versuchsbeginn. Die Öffnung der Eier wurde an den nach oben gerichteten Eierpolen durchgeführt, wofür die Eierschalen kreisrund (Ø 1,5 cm) geöffnet wurden. Nach dem Abnehmen der Eischalen wurden die Eihäute mit einer 37°C warmen 0,9%-igen NaCl-Lösung befeuchtet. Anschließend wurden unter der Sterilbank die äußeren Eihäute mittels Schere und Pinzette entfernt und die Chorion-Allantois-Membranen freigelegt. […] Die halbfeste Keratinpartikel-haltige Formulierung konnte nun an den gut ausgebildeten und unbeschädigten Blutgefäßen der Chorion-Allantois-Membranen aufgetragen und getestet werden. Das Testpräparat wurde an insgesamt sechs Eiern getestet, maximal 30 Minuten nach der Öffnung der Eier.
Im Rahmen der HET-CAM Untersuchungen wurden von dem Testpräparat (2,88 mg/ml kolloidale Keratin-Lösung in 0,5 % Hydoxyethylcellulose-Gel) je 200 µl auf die Chorion-Allantois-Membran appliziert und diese für insgesamt 300 Sekunden beobachtet. Während dieser Zeit wurden die Veränderungen an der Membran, hinsichtlich des Zeitpunktes des Auftretens (Irritationsscore, IS) und der Festlegung des Schweregrades zum Ende der Beobachtungszeit, dokumentiert. Hierbei wurden folgende Kriterien bewertet: Hämorrhagien (H) - das Auftreten von Blutungen; Gefäßlyse (L) - das Transparentwerden von Gefäßen und Koagulation (C) - das Stagnieren des Blutflusses als Zeichen der intravasalen Gerinnung. Als Negativkontrolle wurde steriles Wasser und als Positivkontrolle eine 1 %-ige Natriumlaurysulfat-Lösung eingesetzt. Die Berechnung des Irritationsscores (IS) erfolgte anhand der ICCVAM-Kriterien.
Als Bewertungskriterien des ISs wurden folgende Grenzwerte definiert:
Der Schweregrad von Veränderungen zum Ende des Beobachtungszeitraums wurde nach den folgenden Kriterien eingestuft:
Die Hämorrhagie (H) wurde entsprechend des Ausmaßes von Erythrozytenextravasaten den Kategorien halbquantitativ wie folgt zugeordnet: Einzelne Kapillarblutungen bei morphologisch intakten Kapillaren wurden als leichte, multiple Kapillarblutungen bei morphologisch intakten Kapillaren als mäßige und morphologisch geschädigte Kapillaren mit Kapillarblutungen oder Massenblutungen als schwere Hämorrhagie eingestuft. Vereinzelte transparente Kapillarabschnitte wurden als leichte, die Transparenz von ganzen Kapillaren als mäßige und das Auftreten von kompletten Gefäßlysen als schwere Lyse bewertet. Die Koagulation (C) wurde entsprechend des Ausmaßes von Koagulationsphänomenen den Kategorien halbquantitativ wie folgt zugeordnet: Einzelne Kapillarthrombosen bei morphologisch intakten Kapillaren wurden als leichte, multiple Kapillarthrombosen bei morphologisch intakten Kapillaren als mäßige und geschädigte Kapillaren mit langstreckigen Kapillarthrombosen als schwere C eingestuft. Die eingesetzten Hühnereier wurden nach einer Lagerung für 48 Stunden bei -20°C, hygienisch entsorgt. Tab.

[2] = Penetration kinetics of Mometasonfuroat, Franz diffusion cell, HPLC; assay type: in vitro ADME, human
Experimental: Um den Einfluss von monomerem beta-Keratin auf die Pharmakokinetik von Wirkstoffen nachzuweisen, wurde in einer halbfesten Cremematrix (Monovo® 1 mg/g Creme) gelöstes Mometasonfuroat, als Modellwirkstoff mit 2% Keratinpartikeln versetzt und zur Ausbildung von nicht-kovalenten Proteine-Wirkstoff-Konjugaten homogen verrührt und inkubiert. Zur Objektivierung der pharmakokinetischen Unterschiede wurde eine Diffusionskinetik der Formulierung ohne und mit Beimischung von Keratinpartikeln vergleichend bestimmt.
In der vorliegenden Studie wurde eine HPLC-Methode zur Quantifizierung von Mometasonfuroat in Proben aus der Penetrationsstudie verwendet. Es wurde eine analytische HPLC-UV-Methode entwickelt und validiert. Zur Bestimmung der Wiederfindung wurden dazu 3 Proben der Prüfformulierung mit 1,8 mL Lösungsmittel 1 h lang inkubiert (Laborschüttler, 150 U/min), anschließend zentrifugiert (13.000 U/min, 10 min) und gemessen. Die Wiederfindungsraten wurden mit den experimentell ermittelten Konzentrationen der Prüfgegenstände berechnet. Werte zwischen 95 % und 105 % wurden als unbeeinflusst und damit als korrekt angenommen.
Für jede Testformulierung wurden drei Humanhautproben, d. h. von drei verschiedenen Spendern untersucht. Jede Hautprobe ergab drei Stanzbiopsien zu drei verschiedenen Zeitpunkten, d. h. insgesamt […] Proben je Testformulierung. […]

[3] = summary Tab. 7, mean severity after 300 s

| Compound | IS-C ([1]; summary Tab. 7) | IS-Gesamt ([1]; summary Tab. 7) | IS-H ([1]; summary Tab. 7) | IS-L ([1]; summary Tab. 7) | SG-C [1, 3] | SG-H [1, 3] | SG-L [1, 3] | kutane Bioverfügbarkeit [2] |
| --- | --- | --- | --- | --- | --- | --- | --- | --- |
| CCCCCCCCCCCCOS(=O)(=O)O [1 % Natriumlaurylsulfat-Lösung, Natriumlaurylsulfat] | 6,01 | 9,80 | 2,89 | 0,90 | 3,00 | 1,67 | 0,42 |  |
| C[C@@H]1C[C@H]2[C@@H]3CCC4=CC(=O)C=C[C@]4(C)[C@@]3(Cl)[C@@H](O)C[C@]2(C)[C@@]1(OC(=O)c1ccco1)C(=O)CCl [Mometasonfuroat] |  |  |  |  |  |  |  | keinen relevanten Einfluss |
